Results as given in patent publication US8541596B2, “Inhibitors” (Probiodrug AG, priority 2010, dated 2013).

Biological target: hQC (Homo sapiens (Human), UniProt Q16769)
Assay: QC inhibitor assay (fluorometric/spectrophotometric QC activity assay with inhibitor added)
Format: biochemical
Details: bound
Experimental: All measurements were performed with a BioAssay Reader HTS-7000Plus for microplates (Perkin Elmer) at 30° C. QC activity was evaluated fluorometrically using H-Gln-βNA. The samples consisted of 0.2 mM fluorogenic substrate, 0.25 U pyroglutamyl aminopeptidase (Unizyme, Høsholm, Denmark) in 0.2 M Tris/HCl, pH 8.0 containing 20 mM EDTA and an appropriately diluted aliquot of QC in a final volume of 250 μl. Excitation/emission wavelengths were 320/410 nm. The assay reactions were initiated by addition of glutaminyl cyclase. QC activity was determined from a standard curve of /3-naphthylamine under assay conditions. One unit is defined as the amount of QC catalyzing the formation of 1 μmol pGlu-βNA from H-Gln-/3NA per minute under the described conditions.
In a second fluorometric assay, QC was activity determined using H-Gln-AMC as substrate. Reactions were carried out at 30° C. utilizing the NOVOStar reader for microplates (BMG labtechnologies). The samples consisted of varying concentrations of the fluorogenic substrate, 0.1 U pyroglutamyl aminopeptidase (Qiagen) in 0.05 M Tris/HCl, pH 8.0 containing 5 mM EDTA and an appropriately diluted aliquot of QC in a final volume of 250 μl. Excitation/emission wavelengths were 380/460 nm. The assay reactions were initiated by addition of glutaminyl cyclase. QC activity was determined from a standard curve of 7-amino-4-methylcoumarin under assay conditions. The kinetic data were evaluated using GraFit software.
This novel assay was used to determine the kinetic parameters for most of the QC substrates. […] Samples consisted of the respective QC substrate, 0.3 mM NADH, 14 mM a-Ketoglutaric acid and 30 U/ml glutamate dehydrogenase in a final volume of 250 μl. Reactions were started by addition of QC and persued by monitoring of the decrease in absorbance at 340 nm for 8-15 min.
The initial velocities were evaluated and the enzymatic activity was determined from a standard curve of ammonia under assay conditions. All samples were measured at 30° C., using either the […]uor Plus or the Sunrise (both from TECAN) reader for microplates. Kinetic data was evaluated using GraFit software.
For inhibitor testing, the sample composition was the same as described above, except for the putative inhibitory compound added. For a rapid test of QC-inhibition, samples contained 4 mM of the respective inhibitor and a substrate concentration at 1 KM. For detailed investigations of the inhibition and determination of K,-values, influence of the inhibitor on the auxiliary enzymes was investigated first. […] The inhibitory constant was evaluated by fitting the set of progress curves to the general equation for competitive inhibition using GraFit software.

Chain of hQC (Q16769 29-361): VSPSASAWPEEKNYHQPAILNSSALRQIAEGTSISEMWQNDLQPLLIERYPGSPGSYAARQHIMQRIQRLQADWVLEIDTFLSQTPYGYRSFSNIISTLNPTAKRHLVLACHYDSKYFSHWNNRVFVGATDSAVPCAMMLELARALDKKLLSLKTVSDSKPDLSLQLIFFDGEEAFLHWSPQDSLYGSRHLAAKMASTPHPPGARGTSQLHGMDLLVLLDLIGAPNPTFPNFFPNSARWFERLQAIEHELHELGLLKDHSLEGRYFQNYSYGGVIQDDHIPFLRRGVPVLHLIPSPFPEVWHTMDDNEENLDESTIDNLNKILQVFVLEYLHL

IC50 [µM] | SMILES
< 10 | c1ccc(CN(Cc2ccccc2)c2ccc3[nH]cnc3c2)cc1 [Example 10, N,N-Dibenzyl-1H-benzo[d]imidazol-5-amine]
< 10 | CSc1ccc(CNc2ccc3[nH]cnc3c2)cc1 [Example 11, N-(4-(Methylthio)benzyl)-1H-benzo[d]imidazol-5-amine]
< 10 | N#Cc1ccc(CN(Cc2ccc(C#N)cc2)c2ccc3[nH]cnc3c2)cc1 [Example 19, N,N-Bis(4-cyanobenzyl)-1H-benzo[d]imidazol-5-amine]
< 10 | Brc1ccc(CN(Cc2ccc(Br)cc2)c2ccc3[nH]cnc3c2)cc1 [Example 27, N,N-Bis(4-bromobenzyl)-1H-benzo[d]imidazol-5-amine]
< 10 | c1ccc2sc(CN(Cc3nc4ccccc4s3)c3ccc4[nH]cnc4c3)nc2c1 [Example 34, N,N-Bis((benzo[d]thiazol-2-yl)methyl)-1H-benzo[d]imidazol-5-amine]
< 10 | Cc1ccc2cc(CN(Cc3ccc4nc(C)ccc4c3)c3ccc4[nH]cnc4c3)ccc2n1 [Example 37, N,N-Bis((2-methylquinolin-6-yl)methyl)-1H-benzo[d]imidazol-5-amine]
< 10 | Cc1c(F)c(F)c(CNc2ccc3[nH]cnc3c2)c(F)c1F [Example 44, N-(2,3,5,6-Tetrafluoro-4-methylbenzyl)-1H-benzo[d]imidazol-5-amine]
< 10 | Clc1ccc2scc(CNc3ccc4[nH]cnc4c3)c2c1 [Example 49, N-((5-Chlorobenzo[b]thiophen-3-yl)methyl)-1H-benzo[d]imidazol-5-amine]
< 10 | CSc1ccc(CN(Cc2cc(F)cc(F)c2)c2ccc3[nH]cnc3c2)cc1 [Example 59, N-(3,5-Difluorobenzyl)-N-(4-(methylthio)benzyl)-1H-benzo[d]imidazol-5-amine]
< 10 | CSc1ccc(CN(Cc2cc(F)c(F)c(F)c2)c2ccc3[nH]cnc3c2)cc1 [Example 60, N-(3,4,5-Trifluorobenzyl)-N-(4-(methylthio)benzyl)-1H-benzo[d]imidazol-5-amine]
< 10 | CSc1ccc(CN(Cc2c(F)c(F)c(C)c(F)c2F)c2ccc3[nH]cnc3c2)cc1 [Example 62, N-(2,3,5,6-Tetrafluoro-4-methylbenzyl)-N-(4-(methylthio)benzyl)-1H-benzo[d]imidazol-5-amine]
< 10 | CSc1ccc(CN(Cc2nc3ccccc3s2)c2ccc3[nH]cnc3c2)cc1 [Example 66, N-(4-(Methylthio)benzyl)-N-((benzo[d]thiazol-2-yl)methyl)-1H-benzo[d]imidazol-5-amine]
< 10 | CCc1ccc(CN(Cc2ccc(SC)cc2)c2ccc3[nH]cnc3c2)cc1 [Example 69, N-(4-(Methylthio)benzyl)-N-(4-ethylbenzyl)-1H-benzo[d]imidazol-5-amine]
< 10 | CCc1ccc(CN(Cc2cc(F)c(F)c(F)c2)c2ccc3[nH]cnc3c2)cc1 [Example 71, N-(3,4,5-Trifluorobenzyl)-N-(4-ethylbenzyl)-1H-benzo[d]imidazol-5-amine]
< 10 | CCc1ccc(CN(Cc2ccc(C#N)cc2)c2ccc3[nH]cnc3c2)cc1 [Example 72, N-(4-Cyanobenzyl)-N-(4-ethylbenzyl)-1H-benzo[d]imidazol-5-amine]
< 10 | CCc1ccc(CN(Cc2nc3ccccc3s2)c2ccc3[nH]cnc3c2)cc1 [Example 74, N-(4-Ethylbenzyl)-N-((benzo[d]thiazol-2-yl)methyl)-1H-benzo[d]imidazol-5-amine]
< 10 | COc1ccc(CN(Cc2ccc3nsnc3c2)c2ccc3[nH]cnc3c2)cc1 [Example 76, N-(4-Methoxybenzyl)-N-((benzo[c][1,2,5]thiadiazol-6-yl)methyl)-1H-benzo[d]imidazol-5-amine]
< 10 | Cc1ccc(CN(Cc2ccc(N(C)C)cc2)c2ccc3[nH]cnc3c2)cc1 [Example 78, N-(4-(Dimethylamino)benzyl)-N-(4-methylbenzyl)-1H-benzo[d]imidazol-5-amine]
< 10 | CN(C)c1ccc(CN(Cc2ccc3nsnc3c2)c2ccc3[nH]cnc3c2)cc1 [Example 81, N-(4-(Dimethylamino)benzyl)-N-((benzo[c][1,2,5]thiadiazol-5-yl)methyl)-1H-benzo[d]imidazol-5-amine]
< 10 | CCCCN(Cc1ccc(SC)cc1)c1ccc2[nH]cnc2c1 [Example 83, N-(4-(Methylthio)benzyl)-N-butyl-1H-benzo[d]imidazol-5-amine]
< 10 | COc1ccc(CN(Cc2ccccc2)c2ccc3nc[nH]c3c2)cc1 [Example 86, N-(4-Methoxybenzyl)-N-benzyl-3H-benzo[d]imidazol-5-amine]
< 10 | COc1ccc(CN(CCCc2ccccc2)c2ccc3nc[nH]c3c2)cc1 [Example 89, N-(4-Methoxybenzyl)-N-(3-phenylpropyl)-3H-benzo[d]imidazol-5-amine]
